Experiments:
Assay in all cases: relative viability (nuclei count vs DMSO), 5 days (fraction); higher = more cells survive
Tipifarnib + Vorinostat = compound: Cn1cncc1[C@@](N)(c1ccc(Cl)cc1)c1ccc2c(c1)c(-c1cccc(Cl)c1)cc(=O)n2C [Tipifarnib] + O=C(CCCCCCC(=O)Nc1ccccc1)NO [Vorinostat] (partner 1 µM)
Method in brief: (§1)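 After 5 days of treatment, lung cancer cells in 1536-well plates were fixed and stained in a single step (final 0.05% Triton X-100, 1% formaldehyde, 1 ug/ml Hoechst) and their nuclei counted on 4× images. Treatment had been applied by pin tool the day after seeding as one drug alone or as a fixed anchor-drug dose with five library-drug doses (not always all listed) in √10 steps. Relative viability is the nuclei count of treated wells divided by that of vehicle wells, and values are medians of duplicate plates.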

Tipifarnib + Pictilisib = compound: Cn1cncc1[C@@](N)(c1ccc(Cl)cc1)c1ccc2c(c1)c(-c1cccc(Cl)c1)cc(=O)n2C [Tipifarnib] + CS(=O)(=O)N1CCN(Cc2cc3nc(-c4cccc5[nH]ncc45)nc(N4CCOCC4)c3s2)CC1 [Pictilisib] (partner 1 µM)
Method in brief: as §1

Tipifarnib + Crizotinib = compound: Cn1cncc1[C@@](N)(c1ccc(Cl)cc1)c1ccc2c(c1)c(-c1cccc(Cl)c1)cc(=O)n2C [Tipifarnib] + C[C@@H](Oc1cc(-c2cnn(C3CCNCC3)c2)cnc1N)c1c(Cl)ccc(F)c1Cl [Crizotinib] (partner 1 µM)
Method in brief: as §1

Tipifarnib + Dasatinib = compound: Cn1cncc1[C@@](N)(c1ccc(Cl)cc1)c1ccc2c(c1)c(-c1cccc(Cl)c1)cc(=O)n2C [Tipifarnib] + Cc1nc(Nc2ncc(C(=O)Nc3c(C)cccc3Cl)s2)cc(N2CCN(CCO)CC2)n1 [Dasatinib] (partner 0.075 µM)
Method in brief: as §1

| Cell Line | relative viability (Tipifarnib + Vorinostat; first compound 0.01 µM) | relative viability (Tipifarnib + Vorinostat; first compound 0.03162 µM) | relative viability (Tipifarnib + Vorinostat; first compound 0.1 µM) | relative viability (Tipifarnib + Vorinostat; first compound 0.3162 µM) | relative viability (Tipifarnib + Vorinostat; first compound 1 µM) | relative viability (Tipifarnib + Pictilisib; first compound 0.01 µM) | relative viability (Tipifarnib + Pictilisib; first compound 0.03162 µM) | relative viability (Tipifarnib + Pictilisib; first compound 0.1 µM) | relative viability (Tipifarnib + Pictilisib; first compound 0.3162 µM) | relative viability (Tipifarnib + Pictilisib; first compound 1 µM) | relative viability (Tipifarnib + Crizotinib; first compound 0.01 µM) | relative viability (Tipifarnib + Crizotinib; first compound 0.03162 µM) | relative viability (Tipifarnib + Crizotinib; first compound 0.1 µM) | relative viability (Tipifarnib + Crizotinib; first compound 0.3162 µM) | relative viability (Tipifarnib + Crizotinib; first compound 1 µM) | relative viability (Tipifarnib + Dasatinib; first compound 0.01 µM) | relative viability (Tipifarnib + Dasatinib; first compound 0.03162 µM) | relative viability (Tipifarnib + Dasatinib; first compound 0.1 µM) | relative viability (Tipifarnib + Dasatinib; first compound 0.3162 µM) | relative viability (Tipifarnib + Dasatinib; first compound 1 µM) |
| --- | --- | --- | --- | --- | --- | --- | --- | --- | --- | --- | --- | --- | --- | --- | --- | --- | --- | --- | --- | --- |
| HCC-78 | 0.503 | 0.451 | 0.392 | 0.385 | 0.366 | 0.19 | 0.24 | 0.191 | 0.2 | 0.176 | 0.321 | 0.357 | 0.303 | 0.29 | 0.266 | 0.327 | 0.428 | 0.273 | 0.371 | 0.266 |
| HCC-366 | 0.249 | 0.145 | 0.102 | 0.067 | 0.0373 | 0.145 | 0.133 | 0.0968 | 0.0769 | 0.0755 | 0.695 | 0.389 | 0.151 | 0.17 | 0.034 | 0.78 | 0.65 | 0.353 | 0.331 | 0.046 |
| HCC-827 | 0.926 | 0.674 | 0.69 | 0.485 | 0.294 | 0.955 | 0.905 | 0.775 | 0.653 | 0.675 | 0.868 | 0.883 | 0.712 | 0.617 | 0.552 | 0.372 | 0.363 | 0.446 | 0.403 | 0.431 |
| HOP-62 | 0.624 | 0.186 | 0.335 | 0.243 | 0.203 | 0.506 | 0.158 | 0.24 | 0.3 | 0.26 | 0.726 | 0.528 | 0.303 | 0.35 | 0.448 | 0.683 | 0.392 | 0.37 | 0.277 | 0.338 |
| IA-LM | – | 0.539 | 0.277 | 0.238 | 0.249 | 0.133 | 0.121 | 0.136 | 0.114 | 0.114 | 0.533 | 0.548 | 0.291 | 0.272 | 0.263 | – | – | – | – | – |
| LC-2-ad | 0.634 | 0.505 | 0.42 | 0.336 | 0.305 | 0.515 | 0.371 | 0.255 | 0.325 | 0.191 | 0.399 | 0.391 | 0.382 | 0.349 | 0.35 | 0.54 | 0.545 | 0.496 | 0.277 | 0.336 |
| LCLC-97TM1 | 0.657 | 0.166 | 0.518 | 0.394 | 0.121 | 0.179 | 0.147 | 0.12 | 0.193 | 0.108 | 0.329 | 0.295 | 0.244 | 0.227 | 0.15 | 0.833 | 0.704 | 0.745 | 0.64 | 0.383 |
| LCLC-103H | 0.676 | 0.707 | 0.68 | 0.533 | 0.611 | 0.566 | 0.606 | 0.617 | 0.491 | 0.469 | 1.01 | 1.01 | 0.893 | 0.87 | 0.85 | 0.47 | 0.441 | 0.426 | 0.345 | 0.328 |
| LK-2 | 0.262 | 0.237 | 0.244 | 0.193 | 0.168 | 0.615 | 0.5 | 0.541 | 0.305 | 0.485 | 0.231 | 0.217 | 0.238 | 0.209 | 0.222 | 0.276 | 0.261 | 0.27 | 0.299 | 0.191 |
| LOU-NH91 | 0.897 | 0.53 | 0.749 | 0.747 | 0.458 | 0.517 | 0.446 | 0.499 | 0.501 | 0.388 | 0.741 | 0.752 | 0.695 | 0.619 | 0.646 | 0.53 | 0.505 | 0.507 | 0.451 | 0.338 |
| LU99A | 0.389 | 0.385 | 0.327 | 0.271 | 0.277 | 0.29 | 0.264 | 0.219 | 0.208 | 0.193 | 0.5 | 0.407 | 0.353 | 0.337 | 0.34 | 0.68 | 0.524 | 0.432 | 0.205 | 0.306 |
| NCI-H522 | 0.908 | 0.761 | 0.835 | 0.776 | 0.806 | – | – | – | – | – | – | – | – | – | – | 0.95 | 0.912 | 0.861 | 0.82 | 0.788 |
| NCI-H1299 | – | – | – | – | – | 0.64 | 0.837 | 0.422 | 0.35 | 0.298 | 0.903 | 0.841 | 0.795 | 0.832 | 0.81 | – | – | – | – | – |
| NCI-H1395 | 0.673 | 0.53 | 0.603 | 0.523 | 0.393 | 0.578 | 0.547 | 0.538 | 0.47 | 0.521 | – | – | – | – | – | 0.421 | 0.348 | 0.342 | 0.34 | 0.381 |
| NCI-H1563 | – | – | – | – | – | 0.669 | 0.64 | 0.655 | 0.628 | 0.589 | 0.841 | 0.81 | 0.853 | 0.813 | 0.888 | 0.44 | 0.53 | 0.453 | 0.489 | 0.387 |
| NCI-H1648 | 0.356 | 0.394 | 0.419 | 0.384 | 0.372 | – | – | – | – | – | – | – | – | – | – | – | – | – | – | – |
| NCI-H1703 | – | – | – | – | – | 0.239 | 0.234 | 0.201 | 0.21 | 0.214 | 0.311 | 0.291 | 0.171 | 0.155 | 0.196 | – | – | – | – | – |
| NCI-H1792 | – | – | – | – | – | 0.237 | 0.235 | 0.152 | 0.117 | 0.131 | 1.02 | 0.888 | 0.742 | 0.54 | 0.438 | 1.01 | 0.821 | 0.571 | 0.524 | 0.484 |
| NCI-H1793 | 0.635 | 0.643 | 0.737 | 0.404 | 0.292 | 0.446 | 0.256 | 0.307 | 0.247 | 0.265 | – | – | – | – | – | 0.455 | 0.43 | 0.34 | 0.246 | 0.243 |
| NCI-H2342 | 0.847 | 0.746 | 0.597 | 0.73 | 0.516 | – | – | – | – | – | – | – | – | – | – | 0.332 | 0.337 | 0.272 | 0.331 | 0.267 |
